Laboratory results taken from patent US20250255856A1, “THERAPEUTIC COMPOSITIONS WITH IMINO SUGARS FOR THE TREATMENT OF DISEASES WITH ACCUMULATION OF HEPARAN SULFATE” (priority 2022, published 2025).
Where a name gives a salt, the structure may show the parent alone.

What was measured:
[1] = test system: human adult dermal fibroblasts HDFa; test: HS and Lamp1 immunofluorescence in control fibroblasts HDFa; assay type: cell-based; conditions: 20 μM, 48 hours
Method: (§1) To verify whether the selected iminosugars could exert the same effects also on the fibroblasts of patients affected by Sanfilippo disease, human adult dermal fibroblasts HDFa (purchased from Sigma-Aldrich) were used as control, and fibroblasts of patients affected by Sanfilippo A and B (MPS IIIA and IIIB) were used as disease model.
(§2) Cells were cultured in the presence of the selected L-iminosugars at a dosage of 20 μM and after 48 hours were treated for HS and Lamp1 immunofluorescence. Treatment with L-iminosugars had no effect on control HDFa (Table 3).
(§3) Cells were grown in the presence of the iminosugars D-DNJ, D-NBDNJ, D-AMPDNM and D-MONDNJ at the dosage of 20 μM and after 48 hours were treated for HS and Lamp1 immunofluorescence. Treatment with D-iminosugars had no effect on HDFa and fibroblasts of patients affected by Sanfilippo A and B (MPS IIIA and MPS IIIB) both on HS and lysosome accumulation (Table 4).

[2] = test system: fibroblasts of patients affected by Sanfilippo A (MPS IIIA); test: HS and Lamp1 immunofluorescence in Sanfilippo A patient fibroblasts; assay type: cell-based, human; conditions: 20 μM, 48 hours; for Cells positive for HS (%) / Cells positive for Lamp1 (%) / Relative fluorescence intensity compared to HDFa, HS / Relative fluorescence intensity compared to HDFa, Lamp1: MPS-IIIA fibroblasts; for Effect on HS and lysosome (Lamp1) accumulation, in words: Sanfilippo A (MPS IIIA) patient fibroblasts
Text: as §1
(§4) The human cell lines, fibroblasts, from patients with MPS (Sanfilippo disease) used in the examples were obtained from the G. Gaslini Institute of Genoa, “Cell Line and DNA Biobank from Patients Affected by Genetic Diseases”-Telethon Genetic Biobank Network—Telethon research service. These cells are classified with identification codes and by type of disease without allowing patient identification. Cells were collected from the patients, at the Gaslini Institute, with informed consent to the collection extended to conservation and its possible use, for diagnosis and/or research purposes according to current legislation as required by the guidelines followed by the Telethon biobanks. The Network operates abiding by the Italian Privacy and Data Protection Laws in force, including: Italian Data Protection Authority, Personal Data Protection Code, Legislative Decree no. 196, 30 Jun. 2003, published in Official Gazette No. 174 of the Italian Republic, 29 Jul. 2003; Italian Data Protection Authority, General Authorization for the processing of genetic data, 24 Jun. 2011, published in Official Gazette No. 159 of Italian Republic, 11 Jul. 2011.
as §2, §3

[3] = test system: fibroblasts of patients affected by Sanfilippo B (MPS IIIB); test: HS and Lamp1 immunofluorescence in Sanfilippo B patient fibroblasts; assay type: cell-based, human; conditions: 20 μM, 48 hours; for Cells positive for HS (%) / Cells positive for Lamp1 (%) / Relative fluorescence intensity compared to HDFa, HS / Relative fluorescence intensity compared to HDFa, Lamp1: MPS-IIIB fibroblasts; for Effect on HS and lysosome (Lamp1) accumulation, in words: Sanfilippo B (MPS IIIB) patient fibroblasts
Text: as §1, §4, §2, §3

[4] = test system: HeLa tumor epithelial cells; test: HeLa cell proliferation assay; assay type: cell-based; conditions: after 48 hours
Method: Furthermore, treatment with the L-deoxyminosugars L-DNJ, L-NBDNJ, L-AMPDNM and L-MONDNJ caused a decrease of the number of HeLa cells after 48 hours as shown by the cell proliferation assay reported in Table 6.

[5] = test system: NAGLU-silenced clone (cl5) of human neuroblastoma cell line SK-NBE; test: Immunofluorescence against beta-amyloid peptide 1-42 in NAGLU-silenced SK-NBE clone; assay type: cell-based; conditions: 20 μM, 48 hours
Method: The clone (c15) stably silenced for NAGLU, the causative gene of MPS IIIB, is able to mimic the features of neurodegenerative diseases as it accumulates beta-amyloid fibers in the cytoplasm. In fact, Sanfilippo Syndrome is also defined as “childhood Alzheimer”.
The diseased clone (c15) was grown in the presence of L-DNJ, L-NBDNJ, L-AMPDNM and L-MONDNJ and the corresponding enantiomers D-DNJ, D-NBDNJ, D-AMPDNM and D-MONDNJ at a dosage of 20 μM and after 48 hours were processed by immunofluorescence against the beta-amyloid peptide 1-42. […] On contrary, treatment with the corresponding D-enantiomers has no effect on the reduction of the accumulation of amyloid fibers compared to the untreated clone (mock) (Table 7).

[6] = test system: NAGLU-silenced clone (cl5) of human neuroblastoma cell line SK-NBE; test: Lamp1 immunofluorescence (lysosomal accumulation) in NAGLU-silenced SK-NBE clone, Sanfilippo B model; assay type: cell-based; conditions: 48 hours; for Cells positive for Lamp1 (%) / Relative Lamp1 fluorescence intensity: cl5 clone, 20 μM; for Effect on lysosomal enlargement and accumulation (lysosomal phenotype), in words: clone 5, 20 μM
Text: (§5) To study the effects of the compounds on the lysosomal dysfunctions in a neuronal model of Sanfilippo B disease (MPS IIIB), we recently generated stable clones of the human neuroblastoma cell line SK-NBE silenced for the NAGLU gene causative of MPS IIIB [De Pasquale V, et al. (2021). Biochim Biophys Acta Mol Cell Res. 1868, 119113.]. Mimicking the features of Sanfilippo B disease, silencing of NAGLU causes accumulation of heparan sulfate and accumulation of lysosomes in the cytoplasm of stable SK-NBE clones compared to the control (WT) clone.
(§6) Therefore, NAGLU-silenced clone (c15) and control clone (WT) were selected to test the effect of L-deoxyminosugars (L-DNJ, L-NBDNJ, L-NNDNJ, L-HPDNJ, L-NPDNJ, L-AMPDNM and L-MONDNJ) in the hydrochloride form on the lysosomal phenotype of our cell model of Sanfilippo B (MPS IIIB).
(§7) Clone 5 was cultured in the presence of 20 μM of each L-deoxyminosugar under normal growth conditions and after 48 hours the lysosomal accumulation was evaluated with immunofluorescence technique by using a specific antibody against Lamp1 (lysosomal marker). […] Furthermore, upon treatment with the active L-deoxyminosugar the lysosomes are no longer concentrated in the perinuclear region of the cells, as occurs in several lysosomal diseases, but they are physiologically distributed throughout the cytoplasm.

[7] = test system: control clone (WT) of human neuroblastoma cell line SK-NBE; test: Lamp1 immunofluorescence in control (WT) SK-NBE clone; assay type: cell-based; conditions: 20 μM, 48 hours
Text: as §5, §6, §7

[8] = test system: NAGLU-silenced clone (cl5) of human neuroblastoma cell line SK-NBE; test: Heparan sulfate (HS) immunofluorescence in NAGLU-silenced SK-NBE clone, Sanfilippo B model; assay type: cell-based; conditions: 48 hours; for Cells positive for HS (%) / Relative HS fluorescence intensity: cl5 clone, 20 μM; for Effect on HS staining / HS accumulation, in words: clone 5, 20 μM
Text: as §5
Clone 5 was grown in the presence of 20 μM of each L-iminosugar under normal growth conditions and after 48 hours the accumulation of heparan sulfate (HS) was evaluated by immunofluorescence staining for HS.

[9] = test system: control clone (WT) of human neuroblastoma cell line SK-NBE; test: Heparan sulfate (HS) immunofluorescence in control (WT) SK-NBE clone; assay type: cell-based; conditions: 20 μM, 48 hours
[10] = test system: HeLa tumor epithelial cells; test: HS immunostaining in HeLa cells; assay type: cell-based; conditions: 48 hours
Method: To test whether treatment with the selected L-deoxyminosugars (L-DNJ, L-NBDNJ, L-AMPDNM and L-MONDNJ) could interfere with HS synthesis we selected a cell line not mutated for NAGLU and highly decorated by heparan sulfate on the cell membrane. For this purpose, HeLa tumor epithelial cells (purchased from ATCC) were cultured for 48 hours in the presence of the selected L-iminosugars and the amount of HS was evaluated by immunostaining.

Row | SMILES | Cell number [4] | Relative amyloid fluorescence intensity [5] | Cells positive for Lamp1 (%) [6] [%] | Relative Lamp1 fluorescence intensity [6] | Effect on lysosomal enlargement and accumulation (lysosomal phenotype), in words [6] | Cells positive for Lamp1 (%) [7] [%] | Relative Lamp1 fluorescence intensity [7] | Cells positive for HS (%) [8] [%] | Relative HS fluorescence intensity [8] | Effect on HS staining / HS accumulation, in words [8] | Cells positive for HS (%) [9] [%] | Relative HS fluorescence intensity [9] | Relative fluorescence intensity compared to HDFa, HS [1] | Relative fluorescence intensity compared to HDFa, Lamp1 [1] | Relative fluorescence intensity compared to HDFa, HS [2] | Relative fluorescence intensity compared to HDFa, Lamp1 [2] | Effect on HS and lysosome (Lamp1) accumulation, in words [2] | Relative fluorescence intensity compared to HDFa, HS [3] | Relative fluorescence intensity compared to HDFa, Lamp1 [3] | Effect on HS and lysosome (Lamp1) accumulation, in words [3] | further results
1 | OC[C@@H]1[C@@H](O)[C@H](O)[C@@H](O)CN1CCCCCOCC12CC3CC(CC(C3)C1)C2 [D-AMPDNM•HCl] | 5.1 · 10^5 | 1.02 |  |  |  |  |  |  |  |  |  |  |  |  |  |  |  |  |  |  | Cells positive for HS (%) [1]: 4.9%; Cells positive for Lamp1 (%) [1]: 5.1%; Cells positive for HS (%) [2]: 98.7%; Cells positive for Lamp1 (%) [2]: 96.8%; Cells positive for HS (%) [3]: 96.4%; Cells positive for Lamp1 (%) [3]: 94.6%
2 | OC[C@H]1NC[C@H](O)[C@@H](O)[C@@H]1O [D-DNJ•HCl, deoxynojirimycin] | 4.4 · 10^5 | 0.99 |  |  |  |  |  |  |  |  |  |  |  |  |  |  |  |  |  |  | Cells positive for HS (%) [1]: 2.4%; Cells positive for Lamp1 (%) [1]: 5.0%; Cells positive for HS (%) [2]: 97.3%; Cells positive for Lamp1 (%) [2]: 95.0%; Cells positive for HS (%) [3]: 94.9%; Cells positive for Lamp1 (%) [3]: 92.5%
3 | COCCCCCCCCCN1C[C@H](O)[C@@H](O)[C@H](O)[C@H]1CO.Cl [D-MONDNJ•HCl] | 5.0 · 10^5 | 1.05 |  |  |  |  |  |  |  |  |  |  |  |  |  |  |  |  |  |  | Cells positive for HS (%) [1]: 5.0%; Cells positive for Lamp1 (%) [1]: 5.3%; Cells positive for HS (%) [2]: 99.2%; Cells positive for Lamp1 (%) [2]: 95.2%; Cells positive for HS (%) [3]: 95.8%; Cells positive for Lamp1 (%) [3]: 93.8%
4 | OC[C@H]1[C@H](O)[C@@H](O)[C@H](O)CN1CCCCCOCC12CC3C[C@H](C1)C[C@H](C3)C2 [L-AMPDNM•HCl, N-adamantanomethoxypentyl L-DNJ] | 3.7 · 10^5 | 0.02 | 18 | 0.99 | dramatic reduction | 2.5 | 1.08 | 5.1 | 1.19 | dramatic reduction | 2.3 | 0.94 | 1.0 | 1.0 | 1.5 | 2.2 | strong reduction | 1.0 | 1.0 | strong reduction | Effect on HS accumulation on the HeLa cell membrane, in words [10]: strong reduction; Relative HS fluorescence intensity [10]: 0.12; Effect on the number of HeLa cells, in words [4]: decrease
5 | CCCCCCOCCCCCN1C[C@@H](O)[C@H](O)[C@@H](O)[C@@H]1CO [L-HPDNJ•HCl] | 4.3 · 10^5 |  | 87 | 2.10 | did not show any activity | 4.8 | 1.00 | 95.1 | 3.60 | did not show any activity | 2.4 | 0.95 | 1.0 | 1.0 | 5.4 | 3.1 | did not show any activity | 5.7 | 3.0 | did not show any activity | Effect on HS accumulation on the HeLa cell membrane, in words [10]: did not show any activity; Relative HS fluorescence intensity [10]: 0.95
6 | CCCCCCCCCN1C[C@@H](O)[C@H](O)[C@@H](O)[C@@H]1CO [L-NNDNJ•HCl] | 4.2 · 10^5 |  | 85 | 2.70 | did not show any activity | 4.1 | 1.04 | 97.5 | 3.71 | did not show any activity | 4.1 | 0.94 | 1.0 | 1.0 | 4.9 | 3.0 | did not show any activity | 5.8 | 3.1 | did not show any activity | Effect on HS accumulation on the HeLa cell membrane, in words [10]: did not show any activity; Relative HS fluorescence intensity [10]: 0.88
7 | CCCCCCCCCOCCCCCN1C[C@@H](O)[C@H](O)[C@@H](O)[C@@H]1CO [L-NPDNJ•HCl] | 4.7 · 10^5 |  | 84 | 2.65 | did not show any activity | 3.7 | 1.10 | 97.5 | 3.65 | did not show any activity | 4.4 | 0.93 | 1.0 | 1.0 | 5.2 | 2.8 | did not show any activity | 5.9 | 3.3 | did not show any activity | Effect on HS accumulation on the HeLa cell membrane, in words [10]: did not show any activity; Relative HS fluorescence intensity [10]: 1.19
